# Laboratory results from patent US6737383B1, “Herbicidal oxadiazolidines” (priority 1999, dated 2004).
# Legend:
# wheat = assay: Test B pre/postemergence wheat; type: in vivo, Triticum aestivum; conditions: for Plant response rating, Wheat: Postemergence
# Description: (§1) Seeds of bedstraw (Galium aparine), blackgrass (Alopecurus myosuroides), surinam grass (Brachiaria decumbens), cocklebur (Xanthium strumarium), corn (Zea mays), crabgrass (Digitaria sanguinalis), giant foxtail (Setaria faberii), morningglory (Ipomoea hederacea), pigweed (Amaranthus retroflexus), rape (Brassica napus), soybean (Glycine max), sugar beet (Beta vulgaris), velvetleaf (Abutilon theophrasti), wheat (Triticum aestivum), wild oat (Avena fatua) and purple nutsedge (Cyperus rotundus) tubers were planted and treated preemnergence with test chemicals formulated in a non-phytotoxic solvent mixture which included a surfactant.
# (§2) At the same time, these crop and weed species were also treated with postemergence applications of test chemicals formulated in the same manner. Plants ranged in height from 2 to 18 cm (1- to 4-leaf stage) for postemergence treatments. Plant species in the flood test consisted of rice (Oryza sativa), smallflower flatsedge (Cyperus difformis), duck salad (Heteranthera limosa) and bamyardgrass (Echinochloa crus-galli) grown to the 2-leaf stage for testing. Treated plants and controls were maintained in a greenhouse for twelve to sixteen days, after which all species were compared to controls and visually evaluated. Plant response ratings, summarized in Table B, are based on a scale of 0 to 10 where 0 is no effect and 10 is complete control. A dash (−) response means no test result.
# velvetleaf = assay: Test B pre/postemergence velvetleaf; type: in vivo, Abutilon theophrasti; conditions: for Plant response rating, Velvetleaf: Postemergence
# Description: as §1, §2
# crabgrass = assay: Test B pre/postemergence crabgrass; type: in vivo, Digitaria sanguinalis
# Description: as §1, §2
# purple nutsedge = assay: Test B pre/postemergence purple nutsedge; type: in vivo, Cyperus rotundus
# Method in brief: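 Herbicidal effect was estimated by eye on a ten-point control scale after plants spent twelve to sixteen days in a greenhouse following soil or foliar treatment. Foliar sprays targeted plants at one to four leaves; all doses were formulated in a non-phytotoxic solvent with surfactant.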
# bedstraw = assay: Test B pre/postemergence bedstraw; type: in vivo, Galium aparine; conditions: Preemergence
# Description: as §1, §2
# blackgrass = assay: Test B pre/postemergence blackgrass; type: in vivo, Alopecurus myosuroides
# Description: as §1, §2
# cocklebur = assay: Test B pre/postemergence cocklebur; type: in vivo, Xanthium strumarium
# Description: as §1, §2
# wild oat = assay: Test B pre/postemergence wild oat; type: in vivo, Avena fatua; conditions: for Plant response rating, Wild oats: Postemergence
# Description: as §1, §2
# corn = assay: Test B pre/postemergence corn; type: in vivo, Zea mays
# Description: as §1, §2
# soybean = assay: Test B pre/postemergence soybean; type: in vivo, Glycine max; conditions: for Plant response rating, Soybean: Postemergence
# Description: as §1, §2
# pigweed = assay: Test B pre/postemergence pigweed; type: in vivo, Amaranthus retroflexus; conditions: for Plant response rating, Redroot pigweed: Postemergence
# Description: as §1, §2
# giant foxtail = assay: Test B pre/postemergence giant foxtail; type: in vivo, Setaria faberii
# Description: as §1, §2
# morningglory = assay: Test B pre/postemergence morningglory; type: in vivo, Ipomoea hederacea
# Description: as §1, §2
# sugar beet = assay: Test B pre/postemergence sugar beet; type: in vivo, Beta vulgaris; conditions: for Plant response rating, Sugarbeets: Postemergence
# Description: as §1, §2
# surinam grass = assay: Test B pre/postemergence surinam grass; type: in vivo, Brachiaria decumbens
# Description: as §1, §2
# rape = assay: Test B pre/postemergence rape; type: in vivo, Brassica napus
# Description: as §1, §2
# [1] = Rate 500 g/ha, scale of 0 to 10 where 0 is no effect and 10 is complete control
# [2] = Preemergence, Rate 62 g/ha, scale 0 to 10 (0 no effect, 10 complete control)
# [3] = Preemergence, Rate 125 g/ha, scale 0 to 10, 0 is no effect, 10 is complete control
# [4] = Preemergence, Rate 500 g/ha, scale of 0 to 10 where 0 is no effect and 10 is complete control
# [5] = Rate 250 g/ha, scale of 0 to 10 where 0 is no effect and 10 is complete control
# [6] = Postemergence, Rate 62 g/ha, scale of 0 to 10, 0 is no effect, 10 is complete control
# [7] = Postemergence, Rate 125 g/ha, scale 0 to 10, 0 is no effect, 10 is complete control
# [8] = Postemergence, Rate 500 g/ha, scale of 0 to 10 where 0 is no effect and 10 is complete control
# [9] = Rate 250 g/ha, Postemergence, scale of 0 to 10 where 0 is no effect and 10 is complete control
structure (smiles),measurement,setting,value
CCN(CC)C(=O)Cn1c(=O)on(C(=O)N(c2ccccc2)C(C)C)c1=O [Compound 571],"Plant response rating, Wheat",wheat; [1],0
same,Wheat plant response rating,wheat; [2],0
same,Wheat plant response rating,wheat; [3],3
same,Wheat plant response rating (0 to 10 scale),"wheat; Preemergence, Rate 250 g/ha",3
same,Wheat plant response rating,wheat; [4],9
same,"Plant response rating, Wheat",wheat; [5],0
same,"Plant response rating, Velvetleaf",velvetleaf; [1],0
same,Velvetleaf plant response rating,velvetleaf; [2],0
same,Velvetleaf plant response rating,velvetleaf; [3],0
same,Velvetleaf plant response rating (0 to 10 scale),"velvetleaf; Preemergence, Rate 250 g/ha",0
same,Velvetleaf plant response rating,velvetleaf; [4],0
same,"Plant response rating, Velvetleaf",velvetleaf; [5],0
same,Crabgrass plant response rating,crabgrass; [6],0
same,Crabgrass plant response rating,crabgrass; [7],0
same,"Plant response rating, Crabgrass",crabgrass; [8],3
same,Crabgrass plant response rating,crabgrass; [2],2
same,Crabgrass plant response rating,crabgrass; [3],2
same,Crabgrass plant response rating (0 to 10 scale),"crabgrass; Preemergence, Rate 250 g/ha",3
same,Crabgrass plant response rating,crabgrass; [4],3
same,Nutsedge plant response rating,purple nutsedge; [6],0
same,Nutsedge plant response rating,purple nutsedge; [7],0
same,"Plant response rating, Nutsedge",purple nutsedge; [8],0
same,Nutsedge plant response rating,purple nutsedge; [2],0
same,Nutsedge plant response rating,purple nutsedge; [3],0
same,Nutsedge plant response rating (0 to 10 scale),"purple nutsedge; Preemergence, Rate 250 g/ha",0
same,Nutsedge plant response rating,purple nutsedge; [4],0
same,"Plant response rating, Nutsedge",purple nutsedge; [9],0
same,Bedstraw plant response rating,"bedstraw; Rate 62 g/ha, scale 0 to 10 (0 no effect, 10 complete control)",0
same,Bedstraw plant response rating,"bedstraw; Rate 125 g/ha, scale 0 to 10, 0 is no effect, 10 is complete control",0
same,Bedstraw plant response rating (0 to 10 scale),bedstraw; Rate 250 g/ha,0
same,Bedstraw plant response rating,bedstraw; [1],0
same,Blackgrass plant response rating,blackgrass; [6],0
same,Blackgrass plant response rating,blackgrass; [7],0
same,"Plant response rating, Blackgrass",blackgrass; [8],0
same,Blackgrass plant response rating,blackgrass; [2],0
same,Blackgrass plant response rating,blackgrass; [3],2
same,Blackgrass plant response rating (0 to 10 scale),"blackgrass; Preemergence, Rate 250 g/ha",3
same,Blackgrass plant response rating,blackgrass; [4],9
same,"Plant response rating, Blackgrass",blackgrass; [9],0
same,Cocklebur plant response rating,cocklebur; [6],0
same,Cocklebur plant response rating,cocklebur; [7],0
same,"Plant response rating, Cocklebur",cocklebur; [8],0
same,Cocklebur plant response rating,cocklebur; [2],0
same,Cocklebur plant response rating,cocklebur; [3],0
same,Cocklebur plant response rating (0 to 10 scale),"cocklebur; Preemergence, Rate 250 g/ha",0
same,Cocklebur plant response rating,cocklebur; [4],0
same,"Plant response rating, Cocklebur",cocklebur; [9],0
same,"Plant response rating, Wild oats",wild oat; [1],0
same,Wild oats plant response rating,wild oat; [2],0
same,Wild oats plant response rating,wild oat; [3],0
same,Wild oats plant response rating (0 to 10 scale),"wild oat; Preemergence, Rate 250 g/ha",3
same,Wild oats plant response rating,wild oat; [4],7
same,"Plant response rating, Wild oats",wild oat; [5],0
same,Corn plant response rating,corn; [6],0
same,Corn plant response rating,corn; [7],0
same,"Plant response rating, Corn",corn; [8],0
same,Corn plant response rating,corn; [2],0
same,Corn plant response rating,corn; [3],0
same,Corn plant response rating (0 to 10 scale),"corn; Preemergence, Rate 250 g/ha",0
same,Corn plant response rating,corn; [4],0
same,"Plant response rating, Corn",corn; [9],0
same,"Plant response rating, Soybean",soybean; [1],4
same,Soybean plant response rating,soybean; [2],0
same,Soybean plant response rating,soybean; [3],0
same,Soybean plant response rating (0 to 10 scale),"soybean; Preemergence, Rate 250 g/ha",0
same,Soybean plant response rating,soybean; [4],3
same,"Plant response rating, Soybean",soybean; [5],2
same,"Plant response rating, Redroot pigweed",pigweed; [1],0
same,Redroot pigweed plant response rating,pigweed; [2],0
same,Redroot pigweed plant response rating,pigweed; [3],0
same,Redroot pigweed plant response rating (0 to 10 scale),"pigweed; Preemergence, Rate 250 g/ha",9
same,Redroot pigweed plant response rating,pigweed; [4],9
same,"Plant response rating, Redroot pigweed",pigweed; [5],0
same,Giant foxtail plant response rating,giant foxtail; [6],0
same,Giant foxtail plant response rating,giant foxtail; [7],0
same,"Plant response rating, Giant foxtail",giant foxtail; [8],3
same,Giant foxtail plant response rating,giant foxtail; [2],3
same,Giant foxtail plant response rating,giant foxtail; [3],3
same,Giant foxtail plant response rating (0 to 10 scale),"giant foxtail; Preemergence, Rate 250 g/ha",9
same,Giant foxtail plant response rating,giant foxtail; [4],9
same,"Plant response rating, Giant foxtail",giant foxtail; [9],2
same,Morningglory plant response rating,morningglory; [6],4
same,Morningglory plant response rating,morningglory; [7],10
same,"Plant response rating, Morningglory",morningglory; [8],10
same,Morningglory plant response rating,morningglory; [2],0
same,Morningglory plant response rating,morningglory; [3],0
same,Morningglory plant response rating (0 to 10 scale),"morningglory; Preemergence, Rate 250 g/ha",2
same,Morningglory plant response rating,morningglory; [4],4
same,"Plant response rating, Morningglory",morningglory; [9],10
same,"Plant response rating, Sugarbeets",sugar beet; [1],0
same,Sugarbeets plant response rating,sugar beet; [2],0
same,Sugarbeets plant response rating,sugar beet; [3],0
same,Sugarbeets plant response rating (0 to 10 scale),"sugar beet; Preemergence, Rate 250 g/ha",0
same,Sugarbeets plant response rating,sugar beet; [4],0
same,"Plant response rating, Sugarbeets",sugar beet; [5],0
same,B. signalgrass plant response rating,surinam grass; [6],0
same,B. signalgrass plant response rating,surinam grass; [7],0
same,"Plant response rating, B. signalgrass",surinam grass; [8],5
same,B. signalgrass plant response rating,surinam grass; [2],0
same,B. signalgrass plant response rating,surinam grass; [3],3
same,"B. signalgrass plant response rating (0 to 10 scale, 0 is no effect, 10 is complete control)","surinam grass; Preemergence, Rate 250 g/ha",3
same,B. signalgrass plant response rating,surinam grass; [4],9
same,"Plant response rating, B. signalgrass",surinam grass; [9],0
same,Rape plant response rating,rape; [6],0
same,Rape plant response rating,rape; [7],0
same,"Plant response rating, Rape",rape; [8],0
same,Rape plant response rating,rape; [2],0
same,Rape plant response rating,rape; [3],0
same,Rape plant response rating (0 to 10 scale),"rape; Preemergence, Rate 250 g/ha",0
same,Rape plant response rating,rape; [4],2
same,"Plant response rating, Rape",rape; [9],0
